The source of these data is publication PMC8745345, “Hydroxy Pentacyclic Triterpene Acid, Kaempferol, Inhibits the Human 5-Hydroxytryptamine Type 3A Receptor Activity” (International Journal of Molecular Sciences, 2022).

For series [1], the target named is T1, human 5-HT3A receptor I180A mutant (Homo sapiens, UniProt P46098, V202A).
T1 sequence (P46098 24-478 V202A): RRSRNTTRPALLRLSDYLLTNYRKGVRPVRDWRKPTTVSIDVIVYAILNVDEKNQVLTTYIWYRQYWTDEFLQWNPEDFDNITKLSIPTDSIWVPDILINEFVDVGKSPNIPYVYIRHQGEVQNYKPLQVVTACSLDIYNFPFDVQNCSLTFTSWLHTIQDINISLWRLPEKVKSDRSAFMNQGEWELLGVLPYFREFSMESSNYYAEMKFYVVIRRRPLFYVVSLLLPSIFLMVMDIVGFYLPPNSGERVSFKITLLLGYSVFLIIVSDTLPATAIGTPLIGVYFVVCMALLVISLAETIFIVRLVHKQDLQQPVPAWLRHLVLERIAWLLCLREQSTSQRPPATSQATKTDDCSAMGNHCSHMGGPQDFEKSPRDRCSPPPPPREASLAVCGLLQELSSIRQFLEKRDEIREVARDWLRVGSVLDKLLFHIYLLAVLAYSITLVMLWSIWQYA
Description: Two-electrode voltage clamp, I5-HT inhibition, I180A mutant. Format: cell-based. Here is the method: (§1) Human 5-HT3A receptor cDNA was linearized using restriction enzyme XhoI. In vitro transcription was performed using an mMESSAGE mMACHINE T7 Transcription Kit (Thermo Fisher Scientific, Waltham, MA, USA). The final mRNA product was dissolved in 1X Diethyl Pyrocarbonate (RNase-free water) at a final concentration of 1 μg/μL and kept in a deep-freezer at −80 °C until used.
Xenopus oocytes were used in this study as cells for expression of human 5-HT3A receptor. All female frogs used in this experiment were obtained from the Korean Xenopus Resource Center for Research (KXRCR000001). Xenopus management followed the guideline of Chonnam National University institution guidelines (CNU IACUC-YB-2016-07, July 2016). Xenopus oocytes were extracted during ice incubation state and isolated as single oocytes using collagenase II (2 mg/mL) in OR2 buffer (82.5 mM NaCl, 2 mM KCl, 1 mM MgCl2, 5 mM HEPES, pH 7.4). Isolated oocytes were incubated with ND96 incubation buffer (96 mM NaCl, 2 mM KCl, 1 mM MgCl2, 1.8 mM CaCl2, 5 mM HEPES, 2.5 mM sodium pyruvate, and […], pH 7.4) at 18 °C until the experiment was performed. Human 5-HT3A receptor mRNA was injected into oocytes using a nanoinjector (Drummond Scientific, Broomall, PA, USA) with a mineral-filled 10 μL microdispenser (VWR, Piscataway, NJ, USA).
To confirm the KAE activity on the human 5-HT3A receptor, a two-electrode voltage clamp (OC-725C; Warner Instruments, Hamden, CT, USA) with a Digitata 1550A was used. For the experiment, induced-inward current was converted to digital data with pClamp 10 software (Axon Instruments, Union City, CA, USA). […]
(§2) The voltage relationship experiment for confirming the relationship between induce-inward current and voltage, the voltage was varied from −80 mV to +60 mV using a ramp protocol. […] All recording data were analyzed using Clampfit 9.0 (Molecular Devices, San Jose, CA, USA). […]
(§3) All presented experiments were performed at least three times for scientific verification. […] Induced-inward current data were analyzed with SigmaPlot 10.0 software (Systat Software, Inc., San Jose, CA, USA). […]
A general note: Two-electrode voltage clamp holds a large cell at a set potential and records current.

For series [2], the target named is T2, human 5-HT3A receptor I210A mutant (Homo sapiens, UniProt P46098).
T2 sequence (P46098 24-478): T1 sequence (P46098 24-478 V202A) with A179V
Kind of series: Two-electrode voltage clamp, I5-HT inhibition, I210A mutant. Type of series: cell-based. Particulars: −80 mV. Here is the method:
as §1
Xenopus oocytes were used in this study as cells for expression of human 5-HT3A receptor. All female frogs used in this experiment were obtained from the Korean Xenopus Resource Center for Research (KXRCR000001). Xenopus management followed the guideline of Chonnam National University institution guidelines (CNU IACUC-YB-2016-07, July 2016). Xenopus oocytes were extracted during ice incubation state and isolated as single oocytes using collagenase II (2 mg/mL) in OR2 buffer (82.5 mM NaCl, 2 mM KCl, 1 mM MgCl2, 5 mM HEPES, pH 7.4). […]
as §2, §3

On the set-up of series [3]: method as in PMID 21428901. Particulars: lipophilic, penetrates the lipid bilayer; cited from earlier work.

Each structure is given as a SMILES string. Residue numbers refer to the chain shown, from its start.

By IC50 is commonly meant the concentration needed to halve the response being measured. Low readings indicate greater potency in that assay, high ones weaker potency in that assay. Regarding `O=c1c(O)c(-c2ccc(O)cc2)oc2cc(O)cc(O)c12` [KAE, kaempferol], the IC50 was 45.5 ± 12.9 µM in series [1] and 35.4 ± 9.7 µM in series [2]. The “n (Hill coefficient)” value is given as 1.8 ± 0.6 in series [1] (I180A, −80 mV) and 1.8 ± 0.5 in series [2]. In addition, the Emax in series [1] (I180A, −80 mV, read-out: Vmax) was determined as 89.5 ± 12.1%. For the same molecule, in series [3], the “ability to cross the blood-brain barrier (BBB)” value is listed as “can cross the blood-brain barrier (BBB)”.
